The CheMixHub viscosity set

Assay: xn = mol fraction of the nth substance listed

CCCCC + CCCCCCCCCCCC
Details	viscosity [mPa·s]
293.15 K, 100 kPa, x1 = 0.0988	1.33
293.15 K, 100 kPa, x1 = 0.2004	1.153
293.15 K, 100 kPa, x1 = 0.2963	0.995
293.15 K, 100 kPa, x1 = 0.4022	0.847
293.15 K, 100 kPa, x1 = 0.5005	0.686
293.15 K, 100 kPa, x1 = 0.5989	0.581
293.15 K, 100 kPa, x1 = 0.7029	0.468
293.15 K, 100 kPa, x1 = 0.8	0.388
293.15 K, 100 kPa, x1 = 0.9011	0.304
298.15 K, 100 kPa, x1 = 0.0988	1.216
298.15 K, 100 kPa, x1 = 0.2004	1.054
298.15 K, 100 kPa, x1 = 0.2963	0.923
298.15 K, 100 kPa, x1 = 0.4022	0.79
298.15 K, 100 kPa, x1 = 0.5005	0.642
298.15 K, 100 kPa, x1 = 0.5989	0.548
298.15 K, 100 kPa, x1 = 0.7029	0.443
298.15 K, 100 kPa, x1 = 0.8	0.369
298.15 K, 100 kPa, x1 = 0.9011	0.289
298.15 K, 101.33 kPa, x1 = 0.1094	1.194
298.15 K, 101.33 kPa, x1 = 0.2073	1.037
298.15 K, 101.33 kPa, x1 = 0.299	0.9143
298.15 K, 101.33 kPa, x1 = 0.4078	0.7711
298.15 K, 101.33 kPa, x1 = 0.5008	0.6622
298.15 K, 101.33 kPa, x1 = 0.6031	0.5504
298.15 K, 101.33 kPa, x1 = 0.7069	0.4481
298.15 K, 101.33 kPa, x1 = 0.8062	0.3631
298.15 K, 101.33 kPa, x1 = 0.8991	0.2925
303.15 K, 100 kPa, x1 = 0.0988	1.119
303.15 K, 100 kPa, x1 = 0.2004	0.975
303.15 K, 100 kPa, x1 = 0.2963	0.857
303.15 K, 100 kPa, x1 = 0.4022	0.738
303.15 K, 100 kPa, x1 = 0.5005	0.603
303.15 K, 100 kPa, x1 = 0.5989	0.516
303.15 K, 100 kPa, x1 = 0.7029	0.42
303.15 K, 100 kPa, x1 = 0.8	0.358
303.15 K, 100 kPa, x1 = 0.9011	0.275
308.15 K, 100 kPa, x1 = 0.0988	1.032
308.15 K, 100 kPa, x1 = 0.2004	0.906
308.15 K, 100 kPa, x1 = 0.2963	0.8
308.15 K, 100 kPa, x1 = 0.4022	0.693
308.15 K, 100 kPa, x1 = 0.5005	0.568
308.15 K, 100 kPa, x1 = 0.5989	0.489
308.15 K, 100 kPa, x1 = 0.7029	0.399
308.15 K, 100 kPa, x1 = 0.8	0.34
313.15 K, 100 kPa, x1 = 0.0988	0.957
313.15 K, 100 kPa, x1 = 0.2004	0.843
313.15 K, 100 kPa, x1 = 0.2963	0.748
313.15 K, 100 kPa, x1 = 0.4022	0.65
313.15 K, 100 kPa, x1 = 0.5005	0.536
313.15 K, 100 kPa, x1 = 0.5989	0.463
313.15 K, 100 kPa, x1 = 0.7029	0.38
318.15 K, 100 kPa, x1 = 0.0988	0.89
318.15 K, 100 kPa, x1 = 0.2004	0.789
318.15 K, 100 kPa, x1 = 0.2963	0.702
318.15 K, 100 kPa, x1 = 0.4022	0.612
318.15 K, 100 kPa, x1 = 0.5005	0.507
318.15 K, 100 kPa, x1 = 0.5989	0.44
323.15 K, 100 kPa, x1 = 0.0988	0.83
323.15 K, 100 kPa, x1 = 0.2004	0.734
323.15 K, 100 kPa, x1 = 0.2963	0.66
323.15 K, 100 kPa, x1 = 0.4022	0.578
323.15 K, 100 kPa, x1 = 0.5005	0.481
